Experimental data: patent US11583498B2 (Wakamono Corporation, priority 2020, dated 2023)

Key:
[1] = oral administration; cited from earlier work
[2] = Water dispersibility comparison (FIG. 1); type: physicochemical; conditions: dispersed in water, vials of FIG. 1
From the text: With reference to FIG. 1, water dispersibility was compared between the known 95% Tan IIA and nano Tan IIA obtained by the process according to the present invention, in which Vial A represented the known 95% Tan IIA dispersed in water, Vial B represented nano Tan IIA dispersed in water obtained by the process according to the present invention.

water dispersibility [2]: water insoluble
SMILES: Cc1coc2c1C(=O)C(=O)c1c-2ccc2c1CCCC2(C)C [Tan IIA, Tanshinone IIA]
bioavailability [1]: low bioavailability
